Reference: BindingDB's records for PubMed 1994002 (National Institute of Neurological Disorders and Stroke, 1991)
pKi: −log10 of the molar value. “And” between values parts separate entries of the source, which are not always exact repeats. Equal values may be shown once.

What was measured:
[1] = target: T1, Muscarinic acetylcholine receptor M4 (Homo sapiens, UniProt P08173)
T1 sequence (P08173 whole entry): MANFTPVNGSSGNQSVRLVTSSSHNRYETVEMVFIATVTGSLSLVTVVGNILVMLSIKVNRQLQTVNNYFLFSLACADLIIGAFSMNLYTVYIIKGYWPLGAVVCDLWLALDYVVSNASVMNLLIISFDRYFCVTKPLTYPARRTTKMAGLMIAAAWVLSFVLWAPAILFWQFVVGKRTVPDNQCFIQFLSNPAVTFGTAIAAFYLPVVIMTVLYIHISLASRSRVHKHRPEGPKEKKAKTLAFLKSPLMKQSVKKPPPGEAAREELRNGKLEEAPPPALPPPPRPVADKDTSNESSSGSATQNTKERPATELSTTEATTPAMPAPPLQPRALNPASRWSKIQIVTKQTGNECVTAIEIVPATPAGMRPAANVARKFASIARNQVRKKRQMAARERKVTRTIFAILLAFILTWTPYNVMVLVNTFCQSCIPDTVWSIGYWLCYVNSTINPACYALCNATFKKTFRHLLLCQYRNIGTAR

[2] = target: T2, Muscarinic acetylcholine receptor M2 (Homo sapiens, UniProt P08172)
T2 sequence (P08172 whole entry): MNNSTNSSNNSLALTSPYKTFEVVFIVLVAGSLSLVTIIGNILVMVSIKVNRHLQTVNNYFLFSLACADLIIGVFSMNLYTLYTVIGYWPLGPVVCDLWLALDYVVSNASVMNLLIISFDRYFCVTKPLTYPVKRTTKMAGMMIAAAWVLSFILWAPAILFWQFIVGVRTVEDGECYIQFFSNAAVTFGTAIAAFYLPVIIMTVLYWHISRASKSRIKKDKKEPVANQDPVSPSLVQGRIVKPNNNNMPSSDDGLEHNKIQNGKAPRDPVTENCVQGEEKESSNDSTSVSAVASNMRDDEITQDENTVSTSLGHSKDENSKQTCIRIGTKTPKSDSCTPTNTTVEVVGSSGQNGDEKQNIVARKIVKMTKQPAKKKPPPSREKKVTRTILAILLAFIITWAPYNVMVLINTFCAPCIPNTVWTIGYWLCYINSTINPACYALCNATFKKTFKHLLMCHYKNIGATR

[3] = target: T3, Muscarinic acetylcholine receptor M5 (Homo sapiens, UniProt P08912)
T3 sequence (P08912 whole entry): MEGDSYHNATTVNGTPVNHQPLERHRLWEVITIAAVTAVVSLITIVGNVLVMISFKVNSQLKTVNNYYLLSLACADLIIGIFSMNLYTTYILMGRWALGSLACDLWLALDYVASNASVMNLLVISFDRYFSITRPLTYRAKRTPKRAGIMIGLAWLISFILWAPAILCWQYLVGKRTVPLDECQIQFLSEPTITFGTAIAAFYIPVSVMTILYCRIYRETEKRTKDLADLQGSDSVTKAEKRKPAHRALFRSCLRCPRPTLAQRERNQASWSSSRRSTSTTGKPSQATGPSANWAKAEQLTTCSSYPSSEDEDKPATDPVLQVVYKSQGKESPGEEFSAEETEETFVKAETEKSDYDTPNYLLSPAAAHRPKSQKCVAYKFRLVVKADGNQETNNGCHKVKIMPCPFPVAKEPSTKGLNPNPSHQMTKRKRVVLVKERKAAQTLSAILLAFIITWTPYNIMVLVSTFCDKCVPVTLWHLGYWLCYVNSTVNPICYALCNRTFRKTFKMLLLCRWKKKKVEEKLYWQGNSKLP

Row | Structure (SMILES) | pKi [1] | pKi [2] | pKi [3]
1 | CCN(CC)CC1CCCCN1CC(=O)N1c2ccccc2NC(=O)c2ccccc21 (single isomer, unassigned; (+)) [CAS_121029-35-4] | 6.79 | 7.26 | 5.52
2 | OC(C#CCN1CCCCC1)(c1ccccc1)C1CCCCC1 (stereo not drawn) [NSC_2054314] | 8.52 and 7.71 | 7.68 and 7.14 | 
3 | COc1ccccc1CNCCCCCCNCCCCCCCCNCCCCCCNCc1ccccc1OC [METHOCTRAMINE] | 7.50 |  | 6.87
4 | CCCN(CCC)CC1CCCCN1CCNC(=O)N1c2ccccc2C(=O)Nc2cccnc21 (stereo not drawn) | 8.00 | 8.22 | 6.27
5 | C[N+]1(C)CCC(OC(=O)C(c2ccccc2)c2ccccc2)CC1 |  |  | 8.98
6 | CCN(CC)CCCCC1CCN(CC(=O)N2c3ccccc3C(=O)Nc3cccnc32)CC1 [NSC_129989] | 8.19 |  | 6.08
7 | O[Si](CCCN1CCCCC1)(c1ccc(F)cc1)C1CCCCC1 (stereo not drawn) [CAS_5311091] | 7.50 | 6.88 | 7.03
8 | C[C@H]1OC(=O)C2C[C@H]3CCCC[C@@H]3[C@@H](/C=C/[C@@H]3CCC[C@H](C)N3C)C21 (stereo partly drawn) [HIMBACINE] |  | 8.00 | 6.31
